In PubChem BioAssay AID2060352 (Molecular Pharmacology Branch, DTP, NCI, 2025):

Tested on: 616215-338-R-J1-PDC spheroid with HUVEC/MSC, viability
Experiment: Anticancer human tumor 616215-338-R-J1-PDC patient-derived colon adenocarcinoma cell line growth inhibition [TAK]
Settings: for IC50: curve of first compound; for viability, T/C: stronger effect = lower value
Method in brief: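 Drug combinations, each paired with TAK-243 or ipatasertib, were tested on multi-cell spheroids of 60% malignant cells, 25% HUVEC and 15% hMSC. Top concentrations were at or near the clinical Cmax (10 microM if undetermined), decreasing by half-log; viability is given as % test/control.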
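Also: spheroids exposed to drugs for 7 days before readout.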

## CC(C)CC(NC(=O)C(Cc1ccccc1)NC(=O)c1cnccn1)B(O)O (stereo not given) + CC(C)NCC(C(=O)N1CCN(c2ncnc3c2C(C)CC3O)CC1)c1ccc(Cl)cc1
Second compound 0.3 µM
  IC50: > 10 nM
Second compound 0.949 µM
  IC50: > 10 nM
Second compound 3 µM
  IC50: 5.34 nM
Second compound 9.49 µM
  IC50: < 0.0316 nM
Second compound 30 µM
  IC50: < 0.0316 nM
Second compound 0.3 µM, first compound 31.6 pM
  viability, T/C: 90.8%
Second compound 0.3 µM, first compound 0.0001 µM
  viability, T/C: 99.2%
Second compound 0.3 µM, first compound 0.000316 µM
  viability, T/C: 90.8%
Second compound 0.3 µM, first compound 0.001 µM
  viability, T/C: 95.1%
Second compound 0.3 µM, first compound 0.00316 µM
  viability, T/C: 96.6%
Second compound 0.3 µM, first compound 0.01 µM
  viability, T/C: 112%
Second compound 0.949 µM, first compound 31.6 pM
  viability, T/C: 114%
Second compound 0.949 µM, first compound 0.0001 µM
  viability, T/C: 109%
Second compound 0.949 µM, first compound 0.000316 µM
  viability, T/C: 121%
Second compound 0.949 µM, first compound 0.001 µM
  viability, T/C: 112%
Second compound 0.949 µM, first compound 0.00316 µM
  viability, T/C: 111%
Second compound 0.949 µM, first compound 0.01 µM
  viability, T/C: 80.3%
Second compound 3 µM, first compound 31.6 pM
  viability, T/C: 81.1%
Second compound 3 µM, first compound 0.0001 µM
  viability, T/C: 88.7%
Second compound 3 µM, first compound 0.000316 µM
  viability, T/C: 88.7%
Second compound 3 µM, first compound 0.001 µM
  viability, T/C: 80.9%
Second compound 3 µM, first compound 0.00316 µM
  viability, T/C: 84.8%
Second compound 3 µM, first compound 0.01 µM
  viability, T/C: 8.39%
Second compound 9.49 µM, first compound 31.6 pM
  viability, T/C: 33.9%
Second compound 9.49 µM, first compound 0.0001 µM
  viability, T/C: 35.2%
Second compound 9.49 µM, first compound 0.000316 µM
  viability, T/C: 26.4%
Second compound 9.49 µM, first compound 0.001 µM
  viability, T/C: 29.8%
Second compound 9.49 µM, first compound 0.00316 µM
  viability, T/C: 32.2%
Second compound 9.49 µM, first compound 0.01 µM
  viability, T/C: 0.75%
Second compound 30 µM, first compound 31.6 pM
  viability, T/C: 15.3%
Second compound 30 µM, first compound 0.0001 µM
  viability, T/C: 15.2%
Second compound 30 µM, first compound 0.000316 µM
  viability, T/C: 14.1%
Second compound 30 µM, first compound 0.001 µM
  viability, T/C: 13.2%
Second compound 30 µM, first compound 0.00316 µM
  viability, T/C: 15.1%
Second compound 30 µM, first compound 0.01 µM
  viability, T/C: 0.24%
